Like-named read-outs stand apart in the source and are kept apart here.
Assays:
Assay in all cases: microbe, parasite or virus in culture
Assay type in all cases: cell-based
[1] = test system: HCV 1a RLuc cells (dicistronic genotype 1a H77 replicon, RLuc reporter); details: Hepatitis C virus, genotype 1a H77 replicon, read-out: 1a
Outline: (§1)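 Replicons used: genotype 1b Con1, 1a H77, 2a JFH-1, and a 2a JFH-1 chimera with J6-strain NS5A (M31 present), all dicistronic.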

[2] = test system: HCV 1b RLuc cells (dicistronic genotype 1b Con1 replicon, RLuc reporter); details: Hepatitis C virus, read-out: 1b (nM)
Outline: as §1

[3] = test system: HCV 2a JFH-1 Rluc cells (dicistronic genotype 2a JFH-1 replicon, RLuc reporter); details: Hepatitis C virus, genotype 2a JFH-1 replicon, read-out: 2a JFH
Outline: as §1

[4] = test system: HCV 3a RLuc cells (NS5A chimeric genotype 1b Con1 replicon with consensus genotype 3a NS5A gene); details: Hepatitis C virus
Outline: (§2)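 Replicon cells stably carrying the listed RLuc-encoding dicistronic replicons were seeded and treated with DMSO serial dilutions of compound (10 mM stocks) diluted into culture medium. After 72 h, cells were lysed and Renilla luciferase activity measured. EC50 was derived by non-linear regression.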

[5] = test system: HCV 4a Rluc cells (NS5A chimeric genotype 1b Con1 replicon with genotype 4a NS5A gene); details: Hepatitis C virus, read-out: 4a
Outline: as §2

[6] = read-out: 3a, Table 2, genotype 3a NS5A chimeric replicon
[7] = read-out: 3a, genotype 3a NS5A chimeric 1b Con1 replicon

Row | SMILES | EC50 ([1]; 72 h, Table 2, 72 hours) [nM] | EC50 ([2]; 72 h) [nM] | EC50 ([3]; 72 h, Table 2, 72 hours) [nM] | EC50 [4, 6] [nM] | EC50 [5] [nM] | EC50 ([1]; RLuc reporter) [nM] | EC50 [2] [nM] | EC50 ([3]; RLuc reporter) [nM] | EC50 [4, 7] [nM]
1 | COC(=O)N[C@H](C(=O)N1CC2(CC2)C[C@H]1c1ncc(-c2ccc3c(c2)C(F)(F)c2cc(-c4ccc5nc([C@@H]6[C@H]7CC[C@H](C7)N6C(=O)[C@@H](c6ccccc6)N6CCOCC6)[nH]c5c4)ccc2-3)[nH]1)C(C)C [Example 96] | 0.001 to 0.999 | 0.006 | 1 to 44 | 1 to 4.99 | 0.001 to 0.99 |  |  |  | 
2 | COC(=O)N[C@H](C(=O)N1CC2(CC2)C[C@H]1c1ncc(-c2ccc3c(c2)C(F)(F)c2cc(-c4ccc5nc([C@@H]6[C@H]7CC[C@H](C7)N6C(=O)[C@H](c6ccccc6)N6CCOCC6)[nH]c5c4)ccc2-3)[nH]1)C(C)C [Example 97] | 1 to 44 | 0.009 | 1 to 44 | > 5 | 0.001 to 0.99 |  |  |  | 
3 | COC(=O)N[C@H](C(=O)N1[C@@H]2CC[C@@H](C2)[C@H]1c1ncc(-c2ccc(-c3ccc(-c4cnc([C@@H]5C[C@H]6C[C@H]6N5C(=O)[C@@H](NC(=O)OC)C(C)C)[nH]4)cc3)cc2)[nH]1)C(C)C [Example 99] | 0.001 to 0.999 | 0.021 | 0.001 to 0.999 | 1 to 4.99 | 0.001 to 0.99 |  |  |  | 
4 | COC(=O)N[C@H](C(=O)N1CCC[C@H]1c1nc2ccc3cc(-c4ccc(-c5cnc([C@@H]6[C@H]7CC[C@H](C7)N6C(=O)[C@@H](NC(=O)OC)[C@@H](C)OC)[nH]5)c(F)c4)ccc3c2[nH]1)C(C)C [Example 100] | 0.001 to 0.999 | 0.004 | 0.001 to 0.999 | 0.001 to 0.99 | 0.001 to 0.99 |  |  |  | 
5 | COC(=O)N[C@H](C(=O)N1[C@@H]2CC[C@@H](C2)[C@H]1c1ncc(-c2ccc3cc(-c4ccc5c(ccc6nc([C@@H]7CCCN7C(=O)[C@H](NC(=O)OC)c7ccccc7)[nH]c65)c4)ccc3c2)[nH]1)C1CCOCC1 [Example 101] | 0.001 to 0.999 | 0.011 | 0.001 to 0.999 | 0.001 to 0.99 | 0.001 to 0.99 |  |  |  | 
6 | COC(=O)N[C@H](C(=O)N1[C@@H]2CC[C@@H](C2)[C@H]1c1ncc(-c2ccc3cc(-c4ccc5c(ccc6nc([C@@H]7CCCN7C(=O)[C@H](NC(=O)OC)c7ccccc7)[nH]c65)c4)ccc3c2)[nH]1)[C@@H](C)OC [Example 102] | 0.001 to 0.999 | 0.009 | 0.001 to 0.999 | 0.001 to 0.99 | 0.001 to 0.99 |  |  |  | 
7 | COC(=O)N[C@H](C(=O)N1C[C@@H](C#N)C[C@H]1c1ncc(-c2ccc3cc(-c4ccc(-c5cnc([C@@H]6CCCN6C(=O)[C@H](NC(=O)OC)c6ccccc6)[nH]5)cc4)ccc3c2)[nH]1)C(C)C [Example 116] |  |  |  |  | 0.001 to 0.99 | 0.001 to 0.999 | 0.008 | 0.001 to 0.999 | 0.001 to 0.99
8 | COC(=O)NC(C(=O)N1CCC[C@H]1c1ncc(-c2ccc(-c3ccc4cc(-c5cnc([C@@H]6CCCN6C(=O)C(NC(=O)OC)C(C)C)[nH]5)ccc4c3)cc2)[nH]1)C(C)C (some centres unmarked) [Example 136] |  |  |  |  | 0.001 to 0.99 | 0.001 to 0.999 | 0.005 | 0.001 to 0.999 | 0.001 to 0.99
9 | COC(=O)N[C@H](C(=O)N1CCC[C@H]1c1nc2c([nH]1)COc1cc(-c3ccc4cc(-c5c[nH]c([C@@H]6CCCN6C(=O)[C@@H](c6ccccc6)N(C)C)n5)ccc4c3)ccc1-2)C(C)C [Example 177] |  |  |  |  | 0.001 to 0.99 | 0.001 to 0.999 | 0.01 | 0.001 to 0.999 | 0.001 to 0.99
10 | COC(=O)N[C@H](C(=O)N1CCC[C@H]1c1nc2ccc(-c3ccc4c(c3)CCc3cc(-c5cnc([C@@H]6CCCN6C(=O)C(c6ccccc6)N(C)C)[nH]5)ccc3-4)cc2[nH]1)C(C)C (some centres unmarked) [Example 181] |  |  |  |  | 0.001 to 0.99 | 0.001 to 0.999 | 0.01 | 0.001 to 0.999 | 0.001 to 0.99
11 | COC(=O)N[C@H](C(=O)N1CCC[C@H]1c1nc2ccc3cc(-c4ccc5cc(-c6cnc([C@@H]7CCCN7C(=O)[C@@H](NC(=O)OC)C7CCOCC7)[nH]6)ccc5c4)ccc3c2[nH]1)C(C)C [Example 195] |  |  |  |  | 0.001 to 0.99 | 0.001 to 0.999 | 0.023 | 0.001 to 0.999 | 1 to 4.99
12 | COC(=O)N[C@H](C(=O)N1CCC[C@H]1c1ncc(-c2ccc3cc(-c4ccc(-c5cnc([C@@H]6CCCN6C(=O)C6(NC(=O)OC)CCc7ccccc76)[nH]5)cc4)ccc3c2)[nH]1)C(C)C (some centres unmarked) [Example 196] |  |  |  |  | 0.001 to 0.99 | 1 to 44 | 0.036 | 1 to 44 | > 5
13 | COC(=O)N[C@H](C(=O)N1CCC[C@H]1c1ncc(-c2ccc(-c3ccc(-c4ccc5cc(-c6cnc([C@@H]7CCCN7C(=O)[C@H](NC(=O)OC)c7ccccc7)[nH]6)ccc5c4)cc3)cc2)[nH]1)C(C)C [Example 197] |  |  |  |  | 0.001 to 0.99 | 1 to 44 | 0.01 | 1 to 44 | 0.001 to 0.99
14 | COC(=O)NC(C(=O)N1CCC[C@H]1c1ncc(-c2ccc3c(c2)C(F)(F)c2cc(-c4ccc(-c5cnc([C@@H]6CCCN6C(=O)[C@H](NC(=O)OC)c6ccccc6)[nH]5)cc4)ccc2-3)[nH]1)C1CCOCC1 (some centres unmarked) [Example 199] |  |  |  |  | 0.001 to 0.99 | 1 to 44 | 0.01 | 1 to 44 | 1 to 4.99
15 | CCN(CC)C(C(=O)N1CCC[C@H]1c1ncc(-c2ccc(-c3ccc4c(c3)C(F)(F)c3cc(-c5cnc([C@@H]6CCCN6C(=O)C(NC(=O)OC)C(C)C)[nH]5)ccc3-4)cc2)[nH]1)c1ccccc1 (some centres unmarked) [Example 200] |  |  |  |  | 0.001 to 0.99 | 1 to 44 | 0.009 | 1 to 44 | 1 to 4.99
16 | COC(=O)N[C@H](C(=O)N1CCC[C@H]1c1ncc(-c2ccc(-c3ccc4c(c3)C(F)(F)c3cc(-c5cnc([C@@H]6CCCN6C(=O)[C@@H](NC(=O)OC)C(C)(C)C)[nH]5)ccc3-4)cc2)[nH]1)C1CCOCC1 [Example 201] |  |  |  |  | 0.001 to 0.99 | 0.001 to 0.999 | 0.018 | 1 to 44 | > 5
17 | COC(=O)NC(C(=O)N1CCC[C@H]1c1ncc(-c2ccc3c(c2)C(F)(F)c2cc(-c4ccc(-c5cnc([C@@H]6CCCN6C(=O)[C@@H](NC(=O)OC)C6CCOCC6)[nH]5)cc4)ccc2-3)[nH]1)C1CCOCC1 (some centres unmarked) [Example 202] |  |  |  |  | 0.001 to 0.99 | 0.001 to 0.999 | 0.017 | 1 to 44 | > 5
18 | CCN(C(=O)OC)[C@@H](C(=O)N1CCC[C@H]1c1ncc(-c2ccc(-c3ccc4cc(-c5cnc([C@@H]6CCCN6C(=O)[C@@H](NC(=O)OC)C(C)C)[nH]5)ccc4c3)cc2)[nH]1)c1ccccc1 [Example 203] |  |  |  |  | 0.001 to 0.99 | > 44 | 0.124 | 1 to 44 | > 5
19 | COC(=O)NC(C(=O)N1CCC[C@H]1c1ncc(-c2ccc3cc(-c4ccc(-c5cnc([C@@H]6C[C@@H](C)CN6C(=O)[C@@H](NC(=O)OC)C6CCOCC6)[nH]5)cc4)ccc3c2)[nH]1)c1ccccc1 (some centres unmarked) [Example 204] |  |  |  |  | 0.001 to 0.99 | 0.001 to 0.999 | 0.03 | 0.001 to 0.999 | 0.001 to 0.99
20 | COC(=O)NC(C(=O)N1CCC[C@H]1c1ncc(-c2ccc3cc(-c4ccc(-c5cnc([C@@H]6CC(C)(Br)CN6C(=O)[C@@H](NC(=O)OC)C6CCOCC6)[nH]5)cc4)ccc3c2)[nH]1)c1ccccc1 (some centres unmarked) [Example 205] |  |  |  |  | 0.001 to 0.99 | 0.001 to 0.999 | 0.016 | 0.001 to 0.999 | 1 to 4.99
21 | COC(=O)NC(C(=O)N1CC2(CC2)C[C@H]1c1ncc(-c2ccc3c(c2)C(F)(F)c2cc(-c4ccc(-c5cnc([C@@H]6CCCN6C(=O)[C@@H](NC(=O)OC)C6CCOCC6)[nH]5)cc4)ccc2-3)[nH]1)C(C)C (some centres unmarked) [Example 207] |  |  |  |  | 0.001 to 0.99 | 0.001 to 0.999 | 0.017 | 1 to 44 | > 5
22 | COC(=O)N[C@H](C(=O)N1CCC[C@H]1c1nc2ccc3cc(C#Cc4ccc(-c5cnc([C@@H]6CCCN6C(=O)[C@H](NC(=O)OC)c6ccccc6)[nH]5)cc4)ccc3c2[nH]1)C1CCOCC1 [Example 208] |  |  |  |  | 0.001 to 0.99 | 0.001 to 0.999 | 0.009 | 0.001 to 0.999 | 0.001 to 0.99
23 | COC(=O)NC(C(=O)N1C[C@H](C)C[C@H]1c1ncc(-c2ccc(-c3ccc4cc(-c5cnc([C@@H]6CCCN6C(=O)[C@@H](NC(=O)OC)C(C)C)[nH]5)ccc4c3)cc2)[nH]1)c1cccnc1 (some centres unmarked) [Example 215] |  |  |  |  | 0.001 to 0.99 | 0.001 to 0.999 | 0.023 | 0.001 to 0.999 | 0.001 to 0.99
24 | COC(=O)N[C@H](C(=O)N1CCC[C@H]1c1nc2ccc3cc(-c4ccc5cc(-c6cnc([C@@H]7COCCN7C(=O)[C@H](NC(=O)OC)c7ccccc7)[nH]6)ccc5c4)ccc3c2[nH]1)C(C)C [Example 216] |  |  |  |  | 0.001 to 0.99 | 0.001 to 0.999 | 0.006 | 0.001 to 0.999 | 0.001 to 0.99
25 | COC(=O)N[C@H](C(=O)N1CCC[C@H]1c1nc2ccc(-c3ccc4c(c3)C(F)(F)c3cc(-c5c[nH]c([C@@H]6CCCN6C(=O)[C@H](NC(=O)OC)c6ccccc6)n5)ccc3-4)cc2[nH]1)C(C)C [Example 217] |  |  |  |  | 0.001 to 0.99 | 0.001 to 0.999 | 0.009 | 0.001 to 0.999 | 0.001 to 0.99
